# Data taken from patent US11207386B2, “Methods for inhibiting tumor growth” (priority 2015, dated 2021).
# “And” between values parts separate entries of the source, which are not always exact repeats. Equal entries are not always repeated.
# System: MCF-7 human breast cancer cells
# Assay: CellTiter Glo assay
# Conditions: six wells and Average
# Procedure: MCF-7 human breast cancer cells were obtained and cultured for 3 passages in recommended media (DMEM medium, F12-K medium, McCoys 5a medium) and 10% fetal bovine serum (FBS). Cells were harvested by trypsinization, counted on ViCell, then plated at a density of 20,000 cells per well in ten clear bottom Perkin Elmer 96 well view plates and ten clear Costar 96 well plates. Oxyrase® and substrate were added to wells in quadruplicate: a first column of 4 wells had cells alone in each well; a second column of 4 wells contained Oxyrase® (20 units/mL) and cells; a third column of 4 wells contained L-Lactate at 40 mM and cells; and a fourth column of 4 wells contained cells and buffer, the latter added at equal volume to Oxyrase®. Five Perkin Elmer 96 well view plates and five clear Costar 96 well plates were placed in an incubator at 37 degrees Celsius and supplied with 5% carbon dioxide and 10% humidity. The remaining plates were placed in an incubator in anaerobic boxes containing oxygen depleting packets.
# On days 0, 1, 3, 5, and 7, one Perkin Elmer 96 well view plate each from aerobic and anaerobic incubators were removed and a CellTiter Glo® assay was performed. CellTiter Glo® reagents were thawed at room temperature and mixed just before being added to each plate. Equal volume (maximum 125 μL) of CellTiter Glo® reagent was added to the plate and the plate incubated in the dark for 15 minutes. Plates were read using a Wallac Victor2 plate reader using the luminescence range
substance,measurement,setting,value
L-Lactate [Substrate + Buffer],CellTiter Glo luminescence (number of cells),"MCF-7, Day 0, Substrate + Buffer",376738 RLU and 379461 RLU and 340018 RLU and 370831 RLU and 395464 RLU and 380015 RLU
same,CellTiter Glo luminescence (number of cells),"MCF-7, Day 1, Substrate + Buffer",136132 RLU and 135475 RLU and 224766 RLU and 187489 RLU and 171303 RLU and 142850 RLU
same,CellTiter Glo luminescence (number of cells),"MCF-7, Day 5, Substrate + Buffer",180844 RLU and 214489 RLU and 155311 RLU and 175921 RLU and 183640 RLU and 185254 RLU
same,CellTiter Glo luminescence (number of cells),"MCF-7, Day 7, Substrate + Buffer",147731 RLU and 163281 RLU and 149128 RLU and 150112 RLU and 139841 RLU and 176875 RLU
